These results are taken from US9758485B2, “Compounds for controlling arthropods” (priority 2013, dated 2017).

For one data set, the system named is Musca domestica. Nature of the data set: Musca domestica test. To be noted: application rate 100 ppm; adult houseflies; kill after 2 days. The data set is classed as in vivo. On the procedure: (§1) Solvent: dimethyl sulphoxide
(§2) To produce an appropriate active ingredient formulation, 10 mg of active ingredient are mixed with 0.5 ml of dimethyl sulphoxide, and the concentrate is diluted with water to the desired concentration.
Vessels containing a sponge treated with sugar solution and the active ingredient formulation of the desired concentration are populated with 10 adult houseflies (Musca domestica).
After 2 days, the kill in % is determined. 100% means that all of the flies have been killed; 0% means that none of the flies have been killed.

A further data set relates to Ctenocephalides felis. Briefly: Ctenocephalides felis - oral test. The data set is classed as in vivo. The following applies: application rate 100 ppm in citrated cattle blood; adult fleas; kill after 2 days. The method, then:
Ctenocephalides felis—Oral Test
as §1
For the purpose of producing an appropriate active ingredient formulation, 10 mg of active ingredient are mixed with 0.5 ml of dimethyl sulphoxide. Dilution with citrated cattle blood gives the desired concentration.
About 20 unfed adult cat fleas (Ctenocephalides felis) are placed into a chamber which is closed at the top and bottom with gauze. A metal cylinder whose bottom end is closed with parafilm is placed onto the chamber. The cylinder contains the blood/active ingredient preparation, which can be imbibed by the fleas through the parafilm membrane.
After 2 days, the kill in % is determined. 100% means that all of the fleas have been killed; 0% means that none of the fleas have been killed.

The subject of the next data set is Boophilus microplus. Briefly: Boophilus microplus - injection test. The data set is classed as in vivo. To be noted: application rate 20 μg/animal; injected into engorged adult female ticks; laying of fertile eggs, after 7 days. The method, then: Boophilus microplus—Injection Test
as §1
To produce an appropriate active ingredient formulation, 10 mg of active ingredient are mixed with 0.5 ml of solvent and the concentrate is diluted with solvent to the desired concentration.
1 μl of the active ingredient solution is injected into the abdomen of 5 engorged adult female cattle ticks (Boophilus microplus). The animals are transferred into dishes and kept in a climate-controlled room.
Efficacy is assessed after 7 days by laying of fertile eggs. Eggs which are not visibly fertile are stored in a climate-controlled cabinet until the larvae hatch after about 42 days. An efficacy of 100% means that none of the ticks has laid any fertile eggs; 0% means that all the eggs are fertile.

For a further data set, the system named is Lucilia cuprina. Briefly: Lucilia cuprina test. The data set is classed as in vivo. To be noted: application rate 100 ppm; L1 larvae in minced horsemeat; kill after 2 days. On the procedure: as §1, §2
About 20 L1 larvae of the Australian sheep blowfly (Lucilia cuprina) are transferred into a test vessel containing minced horsemeat and the active ingredient preparation of the desired concentration.
After 2 days, the kill in % is determined. 100% means that all the larvae have been killed; 0% means that none of the larvae have been killed.

The nature of data set [1]: logP determination by HPLC on a reversed-phase column (C18), EEC Directive 79/831 Annex V.A8. To be noted: for logP^a): HPLC-MS method a), Table I-T3; for log P: HPLC-MS, reversed-phase column (C18). The data set is classed as physicochemical.

For the compound `Cc1cc(C(F)(C(F)(F)F)C(F)(F)F)cc(C)c1-n1cc(-c2cncc(C(=O)NC3(C#N)CC3)c2)cn1` [I-T3-8], the efficacy in the data set on Musca domestica, in the data set on Ctenocephalides felis, in the data set on Boophilus microplus and with Lucilia cuprina was 100% throughout. The “logP^a)” value in data set [1] was found to be 3.4.
As a reminder, the log P is the decadic logarithm of the partition coefficient of the neutral form, usually between octanol and water. Higher therefore signals higher lipophilicity. With `O=C(NC1CC1)c1cc(-c2cnn(-c3ncc(C(F)(F)F)cc3C(F)(F)F)c2)ccc1Cl` [I-T3-150], the efficacy in the data set on Musca domestica, in the data set on Ctenocephalides felis, in the data set with Boophilus microplus and with Lucilia cuprina was 100% each time. Besides, the “log P” value in data set [1] was determined as 3.6.
Regarding `N#CC1(NC(=O)c2cc(-c3cnn(-c4ncc(C(F)(F)F)cc4C(F)(F)F)c3)ccc2Cl)CC1` [I-T3-149], the efficacy with Musca domestica, in the data set with Ctenocephalides felis, in the data set with Boophilus microplus and in the data set with Lucilia cuprina was 100% in each case. Also, in data set [1], the “log P” value is reported as 3.5.
In the case of `N#CC1(NC(=O)c2cc(-c3cnn(-c4c(F)cc(C(F)(C(F)(F)F)C(F)(F)F)cc4F)c3)ccc2Cl)CC1` [I-T3-62], the efficacy in the data set on Musca domestica, with Ctenocephalides felis, in the data set with Boophilus microplus and with Lucilia cuprina was 100% in each case. In addition, the “logP^a)” value in data set [1] was found to be 3.9.
In the case of `Cc1cc(C(F)(C(F)(F)F)C(F)(F)F)cc(C)c1-n1cc(-c2ccc(Cl)c(C(=O)NC3CSC3)c2)cn1` [I-T3-4], the efficacy in the data set with Musca domestica, with Ctenocephalides felis, with Boophilus microplus and in the data set with Lucilia cuprina was 100% each time. In addition, the “logP^a)” value in data set [1] was 4.7.
Take `CCc1cc(C(F)(C(F)(F)F)C(F)(F)F)cc(C)c1-n1cc(-c2cncc(C(=O)NC3CC3)c2)cn1` [I-T3-77]: the efficacy in the data set with Musca domestica, with Ctenocephalides felis, with Boophilus microplus and with Lucilia cuprina was 100% in each case. The “logP^a)” value in data set [1] is 3.4.
In the case of `O=C(NCC(F)(F)F)c1cc(-c2cnn(-c3c(Cl)cc(C(F)(C(F)(F)F)C(F)(F)F)cc3C(F)(F)F)c2)ccc1Cl` [I-T3-58], the efficacy in the data set on Musca domestica, in the data set on Ctenocephalides felis, with Boophilus microplus and with Lucilia cuprina was 100% throughout. The “logP^a)” value in data set [1] is on record as 4.7.
Take `CCc1cc(C(F)(C(F)(F)F)C(F)(F)F)cc(C)c1-n1cc(-c2ccc(Cl)c(C(=O)NC3(C#N)CC3)c2F)cn1` [I-T3-66]: the efficacy in the data set on Musca domestica amounted to 80%; in the data set on Ctenocephalides felis, 100%; in the data set with Boophilus microplus it was 100%; in the data set on Lucilia cuprina, 100%. Moreover, the “logP^a)” value in data set [1] was found to be 4.6.
As for `N#CC1(NC(=O)c2cc(-c3cnn(-c4ccc(OC(F)(F)F)cc4Cl)c3)ccc2Cl)CC1` [I-T3-89], the efficacy with Musca domestica, in the data set on Ctenocephalides felis, in the data set with Boophilus microplus and in the data set with Lucilia cuprina was 100% each time. In addition, in data set [1], the “logP^a)” value is 3.5.
`N#CC1(NC(=O)c2cc(-c3cnn(-c4ncc(C(F)(C(F)(F)F)C(F)(F)F)cc4Cl)c3)ccc2Cl)CC1` [I-T3-151]: the efficacy with Musca domestica, in the data set with Ctenocephalides felis, with Boophilus microplus and in the data set with Lucilia cuprina was 100% in each case. Besides, the lipophilicity (log P) in data set [1] came out at 4.0.
As for `Cc1cc(C(F)(C(F)(F)F)C(F)(F)F)cc(C)c1-n1cc(-c2cnc(C3CC3)c(C(=O)NC3(C#N)CC3)c2)cn1` [I-T3-139], the efficacy stood at 90% in the data set on Musca domestica, 100% with Ctenocephalides felis, 100% with Boophilus microplus and 100% in the data set on Lucilia cuprina. In addition, the log partition coefficient (log P) in data set [1] was 4.1.
For `Cc1cc(C(F)(C(F)(F)F)C(F)(F)F)cc(C)c1-n1cc(-c2ccc(Cl)c(C(=O)NC3(C(F)(F)F)CC3)c2)cn1` [I-T3-5], the efficacy in the data set on Musca domestica, in the data set with Ctenocephalides felis, in the data set with Boophilus microplus and in the data set with Lucilia cuprina was 100% each time. For the same compound, the “logP^a)” value in data set [1] is given as 4.6.
